In this assay the test system is L1210 leukemia ip in BDF1 mice, survival T/C. Description: NCI In Vivo Anticancer Drug Screen. Data for tumor model L1210 Leukemia (intraperitoneal) in B6D2F1 (BDF1) mice. The note with it: endpoint: mean survival time, higher = longer survival. The procedure, abridged:
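Value reflects the ratio of survival in compound-treated mice to survival in vehicle-treated controls, with both groups carrying the same transplanted tumor.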

Where [1] appears, read: dose: 100.0 mg/kg/injection, schedule: Q01DX001 (ip), vehicle: Klucel (hydroxypropylcellulose) (HPC).
Where [2] appears, read: dose: 100.0 mg/kg/injection, schedule: Q04DX002 (ip), vehicle: Klucel (hydroxypropylcellulose) (HPC).
Setting [3] is: dose: 100.0 mg/kg/injection, schedule: Q04DX003 (ip), vehicle: Klucel (hydroxypropylcellulose) (HPC).
The mark [4] stands for this setting: dose: 200.0 mg/kg/injection, schedule: Q01DX001 (ip), vehicle: Klucel (hydroxypropylcellulose) (HPC).
Where [5] appears, read: dose: 200.0 mg/kg/injection, schedule: Q01DX009 (ip), vehicle: Klucel (hydroxypropylcellulose) (HPC).
Where [6] appears, read: dose: 200.0 mg/kg/injection, schedule: Q04DX002 (ip), vehicle: Klucel (hydroxypropylcellulose) (HPC).
Setting [7] is: dose: 200.0 mg/kg/injection, schedule: Q04DX003 (ip), vehicle: Klucel (hydroxypropylcellulose) (HPC).
The mark [8] stands for this setting: dose: 400.0 mg/kg/injection, schedule: Q01DX001 (ip), vehicle: Klucel (hydroxypropylcellulose) (HPC).
Where [9] appears, read: dose: 400.0 mg/kg/injection, schedule: Q04DX003 (ip), vehicle: Klucel (hydroxypropylcellulose) (HPC).
Where [10] appears, read: dose: 100.0 mg/kg/injection, schedule: Q01DX001 (ip), vehicle: other.
Setting [11] is: dose: 200.0 mg/kg/injection, schedule: Q01DX001 (ip), vehicle: other.
[12] abbreviates: dose: 12.5 mg/kg/injection, schedule: Q01DX009 (ip), vehicle: saline with Tween-80.
Setting [13] is: dose: 100.0 mg/kg/injection, schedule: Q01DX009 (ip), vehicle: saline.
Where [14] appears, read: dose: 100.0 mg/kg/injection, schedule: Q04DX003 (ip), vehicle: saline.
Where [15] appears, read: dose: 200.0 mg/kg/injection, schedule: Q01DX009 (ip), vehicle: saline.
Where [16] appears, read: dose: 200.0 mg/kg/injection, schedule: Q04DX003 (ip), vehicle: saline.
Setting [17] is: dose: 400.0 mg/kg/injection, schedule: Q01DX009 (ip), vehicle: saline.
[18] abbreviates: dose: 400.0 mg/kg/injection, schedule: Q04DX003 (ip), vehicle: saline.
Setting [19] is: dose: 50.0 mg/kg/injection, schedule: Q01DX009 (ip), vehicle: saline with Tween-80.

Each structure is given as a SMILES string. Several values for one entry are separate records, joined by “and”; a condition that tells them apart may be missing. Equal entries are not always repeated. Inconclusive results and toxic doses are left out.

Consider `Cc1cc(C)nc(NC(=O)Nc2cc(Cl)ccc2C)c1`, for which the T/C by setting is: under setting [1], 90 % of control; (dose: 100.0 mg/kg/injection, schedule: Q01DX009 (ip), vehicle: Klucel (hydroxypropylcellulose) (HPC)) 92 % of control; under setting [2], 100 % of control; under setting [3], 93 % of control; under setting [4], 100 % of control; under setting [5], 94 % of control and 91 % of control. The T/C reads like this: under setting [6], 96 % of control; under setting [7], 92 % of control; under setting [8], 95 % of control; (dose: 400.0 mg/kg/injection, schedule: Q01DX009 (ip), vehicle: Klucel (hydroxypropylcellulose) (HPC)) 94 % of control and 96 % of control; (dose: 400.0 mg/kg/injection, schedule: Q04DX002 (ip), vehicle: Klucel (hydroxypropylcellulose) (HPC)) 100 % of control; under setting [9], 109 % of control.

`CNC(=O)O/N=C(C)/C(C)=N/OC(=O)NC`: the T/C under setting [10] is 93 % of control; the T/C under setting [11] is 87 % of control; the T/C (dose: 400.0 mg/kg/injection, schedule: Q01DX001 (ip), vehicle: other) was 87 % of control.

As to `CC(CC(C)O)=NCCN=C(C)CC(C)O.[Ni]` (centres undefined), the T/C (dose: 6.25 mg/kg/injection, schedule: Q01DX009 (ip), vehicle: saline with Tween-80) was 108 % of control and the T/C under setting [12] was 89 % of control.

On to `OCC1c2ccccc2C(CO)c2c1ccc1ccccc21` (centres undefined), for which the T/C reads like this: under setting [1], 98 % of control; under setting [4], 98 % of control; under setting [8], 100 % of control.

As to `OCCCNc1nc2ccc(Cl)cc2c2ccccc12`, the T/C was 116 % of control under setting [3], 107 % of control under setting [7] and 108 % of control under setting [9].

On to `CC(C)(C)CC(N)=O`, for which the T/C by setting is: (dose: 100.0 mg/kg/injection, schedule: Q01DX001 (ip), vehicle: saline) 106 % of control; under setting [13], 101 % of control; under setting [3], 117 % of control; under setting [14], 103 % of control; (dose: 133.0 mg/kg/injection, schedule: Q01DX009 (ip), vehicle: Klucel (hydroxypropylcellulose) (HPC)) 111 % of control; (dose: 133.0 mg/kg/injection, schedule: Q04DX003 (ip), vehicle: Klucel (hydroxypropylcellulose) (HPC)) 123 % of control. For the same molecule, the T/C was 97 % of control (dose: 200.0 mg/kg/injection, schedule: Q01DX001 (ip), vehicle: saline); 111 % of control under setting [5]; 89 % of control under setting [15]; 124 % of control under setting [7]; 97 % of control under setting [16]; 105 % of control (dose: 300.0 mg/kg/injection, schedule: Q01DX009 (ip), vehicle: Klucel (hydroxypropylcellulose) (HPC)). Further, the T/C by setting is: (dose: 300.0 mg/kg/injection, schedule: Q04DX003 (ip), vehicle: Klucel (hydroxypropylcellulose) (HPC)) 98 % of control; (dose: 400.0 mg/kg/injection, schedule: Q01DX001 (ip), vehicle: saline) 103 % of control; under setting [17], 97 % of control; under setting [9], 109 % of control; under setting [18], 103 % of control.

`O=C(Nc1ccccc1)N(O)c1ccccc1`: the T/C was 97 % of control (dose: 9.0 mg/kg/injection, schedule: Q01DX015 (ip), vehicle: methylcellulose (MC)); 97 % of control (dose: 18.0 mg/kg/injection, schedule: Q01DX015 (ip), vehicle: methylcellulose (MC)); 112 % of control (dose: 25.0 mg/kg/injection, schedule: Q01DX015 (ip), vehicle: methylcellulose (MC)); 95 % of control (dose: 37.5 mg/kg/injection, schedule: Q01DX015 (ip), vehicle: methylcellulose (MC)); 103 % of control (dose: 50.0 mg/kg/injection, schedule: Q01DX015 (ip), vehicle: methylcellulose (MC)); 103 % of control (dose: 100.0 mg/kg/injection, schedule: Q01DX015 (ip), vehicle: methylcellulose (MC)). Moreover, the T/C (dose: 200.0 mg/kg/injection, schedule: Q01DX015 (ip), vehicle: methylcellulose (MC)) is 101 % of control.

Consider `OC(c1ccccc1)(c1ccccc1)C(F)(F)C(F)(F)C(F)(F)F`, for which the T/C by setting is: (dose: 222.0 mg/kg/injection, schedule: Q01DX Z (ip), vehicle: methylcellulose (MC)) 89 % of control; (dose: 333.0 mg/kg/injection, schedule: Q01DX Z (ip), vehicle: methylcellulose (MC)) 96 % of control.

As for `CCCOP(=S)(NCCCOC)OCCC`, the T/C by setting is: (dose: 50.0 mg/kg/injection, schedule: Q01DX009 (ip), vehicle: other) 94 % of control; (dose: 50.0 mg/kg/injection, schedule: Q04DX003 (ip), vehicle: other) 95 % of control; under setting [10], 96 % of control; (dose: 100.0 mg/kg/injection, schedule: Q01DX009 (ip), vehicle: other) 100 % of control; (dose: 100.0 mg/kg/injection, schedule: Q04DX003 (ip), vehicle: other) 95 % of control; under setting [11], 102 % of control. The T/C by setting is: (dose: 200.0 mg/kg/injection, schedule: Q01DX009 (ip), vehicle: other) 94 % of control; (dose: 200.0 mg/kg/injection, schedule: Q04DX003 (ip), vehicle: other) 97 % of control.

Turning to `CCCCC/C(=N\OC(=O)NC)C(F)(F)F`, the T/C by setting is: (dose: 5.0 mg/kg/injection, schedule: Q01DX001 (ip), vehicle: saline) 96 % of control; (dose: 10.0 mg/kg/injection, schedule: Q01DX001 (ip), vehicle: saline) 104 % of control; (dose: 20.0 mg/kg/injection, schedule: Q01DX001 (ip), vehicle: saline) 100 % of control; (dose: 40.0 mg/kg/injection, schedule: Q01DX001 (ip), vehicle: saline) 98 % of control; (dose: 80.0 mg/kg/injection, schedule: Q01DX001 (ip), vehicle: saline) 94 % of control.

Regarding `COC(=O)C1CCC(NC(=O)N(CCCl)N=O)CC1` (centres undefined), the T/C was 212 % of control and 188 % of control (dose: 13.0 mg/kg/injection, schedule: Q01DX001 (ip), vehicle: Klucel (hydroxypropylcellulose) (HPC)); 270 % of control and 283 % of control (dose: 20.0 mg/kg/injection, schedule: Q01DX001 (ip), vehicle: Klucel (hydroxypropylcellulose) (HPC)); 283 % of control (dose: 30.0 mg/kg/injection, schedule: Q01DX001 (ip), vehicle: Klucel (hydroxypropylcellulose) (HPC)); 248 % of control and 282 % of control (dose: 44.0 mg/kg/injection, schedule: Q01DX001 (ip), vehicle: Klucel (hydroxypropylcellulose) (HPC)); 266 % of control (dose: 67.0 mg/kg/injection, schedule: Q01DX001 (ip), vehicle: Klucel (hydroxypropylcellulose) (HPC)); 104 % of control under setting [1].

For `COCCOCCOCCOCCOCCOC`, the T/C under setting [12] is 104 % of control; the T/C (dose: 25.0 mg/kg/injection, schedule: Q01DX009 (ip), vehicle: saline with Tween-80) was 94 % of control; the T/C under setting [19] is 105 % of control.

As to `Cc1c[n+]([O-])c(C)cc1N=Nc1ccc(N(C)C)cc1`, the T/C is, setting by setting: under setting [19], 111 % of control; (dose: 100.0 mg/kg/injection, schedule: Q01DX009 (ip), vehicle: saline with Tween-80) 95 % of control; (dose: 100.0 mg/kg/injection, schedule: Q04DX002 (ip), vehicle: saline with Tween-80) 89 % of control; (dose: 200.0 mg/kg/injection, schedule: Q01DX009 (ip), vehicle: saline with Tween-80) 90 % of control; (dose: 200.0 mg/kg/injection, schedule: Q04DX002 (ip), vehicle: saline with Tween-80) 99 % of control.

With `Cc1cccc(=O)n1CCC#N`, the T/C is, setting by setting: under setting [13], 96 % of control; under setting [14], 101 % of control; under setting [15], 106 % of control; under setting [16], 93 % of control; under setting [17], 112 % of control; under setting [18], 106 % of control.

In the case of `COC1OC(CI)C(OS(C)(=O)=O)C(OC(=O)c2ccccc2)C1OC(=O)c1ccccc1` (centres undefined), the T/C under setting [2] is 91 % of control and the T/C under setting [6] is 97 % of control.
